Reference: patent US20190211066A1 (INSTITUT NATIONAL DE LA SANTE ET DE LA RECHERCHE M EDICALE …, priority 2010, published 2019)
Entries after “also recorded” stand apart in the source; their conditions may differ.

Legend:
hCMEC/D3 cells [1] = assay: Quantitative analysis of ezrin (and other proteins) recruitment under Nm bacterial colonies; conditions: for ezrin recruitment / ezrin-containing cortical plaques under Nm colonies after siRNA: infection three days after transfection
From the text: The recruitment efficiency was estimated by determining the proportion of colonies positive for the indicated protein of interest. At least 50 colonies were observed per coverslip. Each experiment was repeated several times in duplicate or triplicate. Data was examined for significance using Student's t-test.
(§2) The day before the infection, hCMEC/D3 cells were serum-starved in EBM-2 medium containing 0.1% Bovine Serum albumin (BSA). The day of infection, bacteria from an overnight culture were adjusted to OD600=0.05 and incubated for 2 h at 37° C. in pre-warmed starvation medium. Bacteria were added to cells at a multiplicity of infection (MOI) of 100 and allowed to adhere for 30 minutes. Unbound bacteria were washed with fresh medium and infection was allowed to proceed for 2 h. When needed, drugs were added to cell culture 1 h before infection. Bacteria were tested for growth and aggregation. […] The OD600 was then measured after 1, 2, 3, 4 and 8 h. Aggregation was determined after 2 h of incubation in EBM2, 0.1% BSA in the presence or absence of 100 μM isoproterenol at 37° C. in a 5% CO2 atmosphere under constant shaking.
For each Nm strain, the recruitment efficiency was estimated by determining the proportion of colonies that efficiently recruited the protein of interest in a “honeycomb shape” just under the colonies. […] At least 50 colonies were scrutinized per coverslip. Each experiment was repeated several times (at least 3). Data was examined for significance using Student's t-test.

hCMEC/D3 cells [2] = assay: Static adhesion of Nm (absence of flow); conditions: isoproterenol pre-treatment
Experimental: as §2

hCMEC/D3 cell monolayers = assay: Nm transmigration assay and cell-cell junction gaps; assay type: cell-based, human
Experimental: hCMEC/D3 cells were grown on 3 μm pore size MilliCell® inserts and infected at a MOI of 10, corresponding to 10^6 bacteria per insert. Four hours after infection, inserts were placed in a well with fresh medium. After additional 30 min, the number of bacteria, which had crossed the cell monolayer was determined by plating the content of the well and counting the number of colony forming units. To estimate the surface and number of macroscopic cell-cell junction openings, MilliCell® inserts were fixed in 4% PFA and immunostained for VE-cadherin and actin, Several baso-lateral cross-sections of each insert were acquired using a Leica SP5 confocal microscope. Surface and number of gaps within the hCMEC/D3 cell monolayer was determined using Leica Application Suite-AF (LAS-AF) software. Data were expressed as the number of gaps per 4×10 ^5 μm^2 of hCMEC/D3 cell monolayer surface. The size of gaps was determined using the apparent size of a Nm diplococcus as surface unit (approximately 1.7 μm^2).
Briefly, hCMEC/D3 cells were grown on 3 μm pore size MilliCell® inserts and infected at a MOI of 10 (10^6 bacteria per insert). […] After 30 min, the number of bacteria, which had crossed the monolayer of endothelial cells, was then measured by plating the content of dilutions of the lower compartment on agar plates and counting the number of colony forming units (CFU). […]

hCMEC/D3 cells [3] = assay: Nm adhesion under shear stress (under flow); assay type: cell-based, human; conditions: pre-treatment with 10 μM isoproterenol, shear stress 0.04 dyn/cm^2
Experimental: (§1) hCMEC/D3 cells were grown on disposable flow chambers (15 μ-Slide VI, IBIDI) coated with 5 μg/cm^2 of rat-tail collagen type I. For experiments investigating Nm colony growth under shear stress, 10^7 bacteria were introduced into the flow chamber and allowed to adhere for […] without flow. Subsequently, a flow corresponding to a shear stress of 0.2 dyn/cm^2 was applied using a syringe pump (Harvard Apparatus). For adhesion assays under shear stress, 10^7 bacteria were allowed to adhere for 20 min under a shear stress of 0.04 dyn/cm^2, then the chambers were washed 1 min under a shear stress of 1 dyn/cm^2 (Mairey et al., 2008. J Exp Med 203, 1939-1950).
GFP expression in bacteria was induced by adding 1 mM IPTG in EBM2, 0.1% BSA. […] For adhesion assays under shear stress, […] were introduced into the flow chamber and allowed to adhere for 20 min under a shear stress of 0.04 dyn/cm2, subsequently the chamber was washed 1 min under a shear stress of 1 dyn/cm2, Fluorescent bacteria in the chambers were observed using an Olympus CKX41 inverted microscope with a 20× objective, equipped with a shutter for the fluorescence I amp and a Hamamatsu ORCA285 CCD camera. […] Images were analyzed using the lmageJ software.

N. meningitidis = assay: Nm growth in culture and bacterial aggregation; conditions: 100 μM isoproterenol; data not shown
hCMEC/D3 cells [4] = assay: Growth (size) of Nm colonies on cells under flow; assay type: cell-based, human
Experimental: as §1
GFP expression in bacteria was induced by adding 1 mM IPTG in EBM2, 0.1% BSA. For experiments aimed at determining the growth of colonies under shear stress, 107 bacteria were then introduced into the flow chamber and allowed to adhere for 20 min without flow. Subsequently, a flow corresponding to a shear stress of 0.2 dyn/cm2 was applied using a syringe pump (Harvard Apparatus). For adhesion assays under shear stress, […] were introduced into the flow chamber and allowed to adhere for 20 min under a shear stress of 0.04 dyn/cm2, subsequently the chamber was washed 1 min under a shear stress of 1 dyn/cm2, Fluorescent bacteria in the chambers were observed using an Olympus CKX41 inverted microscope with a 20× objective, equipped with a shutter for the fluorescence I amp and a Hamamatsu ORCA285 CCD camera. Images were collected and processed using the Openlab software (Improvision). The field under observation corresponded to a surface of 425 μm by 320 μm with a resolution of 0.63 μm per pixel. Images were analyzed using the lmageJ software.

## GRK2 siRNA: small interfering RNA targeting human GRK2 (SEQ ID NO: 6) (guide AAGAAGUACGAGAAGCUGGAGUU; chemistry not given here)
hCMEC/D3 cells [1]; siRNA-treated hCMEC/D3 cells
  ezrin recruitment / ezrin-containing cortical plaques under Nm colonies after siRNA: inhibited
hCMEC/D3 cells [1]; siRNA-treated hCMEC/D3 cells, βarr2-GFP readout
  βarr2 recruitment under Nm colonies after siRNA: inhibited

## CC(C)NCC(O)c1ccc(O)c(O)c1 (centres unmarked) [isoproterenol]
hCMEC/D3 cells [2]
  bacterial adhesion in static conditions (absence of flow): No significant difference; also recorded: did not reduce; also recorded: similar
hCMEC/D3 cell monolayers; isoproterenol pre-treatment 10 μM, 1 h, gaps of all size
  number of cell-cell junction gaps induced by Nm: noticeably reduced
hCMEC/D3 cell monolayers; isoproterenol pre-treatment 1 h, 10 μM
  number of meningococci crossing the monolayer (lower chamber of transwells): markedly reduced
hCMEC/D3 cells [3]
  reduction of bacterial adhesion / number of colonies forming under flow: 40%
hCMEC/D3 cells [1]; hCMEC/D3 cells pre-treated with agonist for 2 h before Nm inoculation, saturating (10×KD) concentrations
  effect on Nm-induced ezrin recruitment: showed an effect
hCMEC/D3 cells [1]; isoproterenol dose response, hCMEC/D3 cells
  number of ezrin-containing cortical plaques: dose-dependent reduction
N. meningitidis
  direct inhibition of Nm growth in culture or of bacterial aggregation properties: not due to a direct inhibition
hCMEC/D3 cells [4]; preincubation of cells for 1 h with 10 μM before perfusion of bacteria, control 20% after 4 h
  proportion of small colonies (≤12 μm^2, about 4 bacteria) under flow: ≈ 70%
hCMEC/D3 cells [4]; preincubation of cells for 1 h with 10 μM before perfusion of bacteria, control about 50% after 4 h
  proportion of large colonies (48 μm^2 or more, ≥16 bacteria) under flow: ~10%

## βarr1 and βarr2 siRNAs: small interfering RNAs targeting human βarrestin-1 (SEQ ID NO: 4) and βarrestin-2 (SEQ ID NO: 5) (guide 1 AAAGCCUUCUGCGCGGAGAAU; guide 2 GGCUUGUCCUUCCGCAAAGAC; listed as RNA, chemistry not given here)
hCMEC/D3 cells [1]; siRNA-treated Nm-infected hCMEC/D3 cells
  recruitment of VE-cadherin, p120-catenin, F-actin and ezrin into cortical plaques after siRNA: markedly and simultaneously affected
hCMEC/D3 cells [1]; siRNA-treated hCMEC/D3 cells
  Src recruitment under Nm colonies after siRNA: markedly reduced
  ezrin recruitment / ezrin-containing cortical plaques under Nm colonies after siRNA: decrease

## C=C[C@@]1(C)CC(=O)[C@]2(O)[C@@]3(C)[C@@H](O)CCC(C)(C)[C@@H]3[C@H](O)[C@H](OC(C)=O)[C@@]2(C)O1 [forskolin]
hCMEC/D3 cells [4]; pre-incubation 1 h
  number and size of Nm colonies under flow compared to control conditions: no significant effect

## CC(C)NCC(O)COc1cccc2ccccc12 (centres unmarked) [propranolol]
hCMEC/D3 cells [1]; 100 nM propranolol added during pre-incubation with 10 μM isoproterenol
  reversal of the effect of isoproterenol pre-treatment on Nm-promoted ezrin recruitment: blocked the effect of isoproterenol
hCMEC/D3 cells [1]; preincubation with saturating propranolol alone
  number of ezrin-containing cortical plaques elicited by Nm, agent alone: no effect
